Assay results published in patent publication US20100184596A1, “METHOD FOR THE CONTROL OF WEEDS IN TURF” (SYNGENTA CROP PROTECTION, INC., priority 2007, published 2010).

Tests used:
Assay type in all cases: in vivo
Bermudagrass = assay: Phytotoxicity via post emergence spray application (Table B2.5)
Method: (§1) The phytotoxicity of the compound of formula I to turfgrass species was tested. The compound was applied via post emergence spray to a range of warm and cool season turfgrass species at various rates and spray treatment treatment regimes. Percentage phytotoxicity assessments were taken at various timepoints.

[1] = system: Hydrocotyle sp. (dollarweed); assay: Weed control in combination with safeners, post emergence spray, in St. Augustinegrass v. Delmar (Table B7.1); conditions: no safener, 100 g ai/ha
Method: The weed control efficacy of the compound of formula I in combination with various safeners was tested. The combinations were applied by post emergence spray application. Percentage weed control assessments were taken at various timepoints.

[2] = system: Kentucky bluegrass (3D blend); assay: Phytotoxicity via post emergence spray application (Table B2.6); conditions: 1 appl
Method: as §1

Bluegrass/fescue mix = assay: Phytotoxicity via post emergence spray application (Table B2.7); conditions: 1 appl
Method: as §1

Compound: COCCOCc1nc(C(F)(F)F)ccc1C(=O)C1=C(O)C2CCC(C2)C1=O (centres unmarked) [Formula I, 4-Hydroxy-3-[2-(2-methoxyethoxymethyl)-6-trifluoromethylpyridine-3-carbonyl]-bicyclo[3.2.1]oct-3-en-2-one]
- % phytotoxicity (Bermudagrass; 1 appl, 280 g ai/ha, 42 DAT): 8.75%
- % phytotoxicity (Bermudagrass; 1 appl, 280 g ai/ha, 49 DAT): 6.25%
- % phytotoxicity (Bermudagrass; 2 appl, 140 g ai/ha, 7 DAT): 30.00%
- % phytotoxicity (Bermudagrass; 2 appl, 140 g ai/ha, 14 DAT): 26.25%
- % phytotoxicity (Bermudagrass; 2 appl, 140 g ai/ha, 21 DAT): 15.00%
- % phytotoxicity (Bermudagrass; 2 appl, 140 g ai/ha, 32 DAT): 68.75%
- % phytotoxicity (Bermudagrass; 2 appl, 140 g ai/ha, 35 DAT): 35.00%
- % phytotoxicity (Bermudagrass; 2 appl, 140 g ai/ha, 42 DAT): 15.00%
- % phytotoxicity (Bermudagrass; 2 appl, 140 g ai/ha, 49 DAT): 28.75%
- % phytotoxicity (Bermudagrass; 2 appl, 280 g ai/ha, 7 DAT): 42.50%
- % phytotoxicity (Bermudagrass; 2 appl, 280 g ai/ha, 14 DAT): 36.25%
- % phytotoxicity (Bermudagrass; 2 appl, 280 g ai/ha, 21 DAT): 18.75%
- % phytotoxicity (Bermudagrass; 2 appl, 280 g ai/ha, 32 DAT): 75.00%
- % phytotoxicity (Bermudagrass; 2 appl, 280 g ai/ha, 35 DAT): 65.00%
- % phytotoxicity (Bermudagrass; 2 appl, 280 g ai/ha, 42 DAT): 26.25%
- % phytotoxicity (Bermudagrass; 2 appl, 280 g ai/ha, 49 DAT): 30.00%
- % control ([1]; 7 DAT): 41.70%
- % control ([1]; 11 DAT): 61.70%
- % control ([1]; 18 DAT): 61.70%
- % phytotoxicity ([2]; 10 g ai/ha, 4 DAT): 7.50%
- % phytotoxicity ([2]; 10 g ai/ha, 12 DAT): 0.00%
- % phytotoxicity ([2]; 10 g ai/ha, 22 DAT): 0.00%
- % phytotoxicity ([2]; 10 g ai/ha, 33 DAT): 0.00%
- % phytotoxicity ([2]; 10 g ai/ha, 42 DAT): 0.00%
- % phytotoxicity ([2]; 10 g ai/ha, 160 DAT): 0.00%
- % phytotoxicity ([2]; 20 g ai/ha, 4 DAT): 2.50%
- % phytotoxicity ([2]; 20 g ai/ha, 12 DAT): 0.00%
- % phytotoxicity ([2]; 20 g ai/ha, 22 DAT): 0.00%
- % phytotoxicity ([2]; 20 g ai/ha, 33 DAT): 0.00%
- % phytotoxicity ([2]; 20 g ai/ha, 42 DAT): 0.00%
- % phytotoxicity ([2]; 20 g ai/ha, 160 DAT): 0.00%
- % phytotoxicity ([2]; 40 g ai/ha, 4 DAT): 7.50%
- % phytotoxicity ([2]; 40 g ai/ha, 12 DAT): 0.00%
- % phytotoxicity ([2]; 40 g ai/ha, 22 DAT): 0.00%
- % phytotoxicity ([2]; 40 g ai/ha, 33 DAT): 0.00%
- % phytotoxicity ([2]; 40 g ai/ha, 42 DAT): 0.00%
- % phytotoxicity ([2]; 40 g ai/ha, 160 DAT): 0.00%
- % phytotoxicity ([2]; 80 g ai/ha, 4 DAT): 7.50%
- % phytotoxicity ([2]; 80 g ai/ha, 12 DAT): 0.00%
- % phytotoxicity ([2]; 80 g ai/ha, 22 DAT): 0.00%
- % phytotoxicity ([2]; 80 g ai/ha, 33 DAT): 0.00%
- % phytotoxicity ([2]; 80 g ai/ha, 42 DAT): 0.00%
- % phytotoxicity ([2]; 80 g ai/ha, 160 DAT): 0.00%
- % phytotoxicity ([2]; 160 g ai/ha, 4 DAT): 7.50%
- % phytotoxicity ([2]; 160 g ai/ha, 12 DAT): 0.00%
- % phytotoxicity ([2]; 160 g ai/ha, 22 DAT): 0.00%
- % phytotoxicity ([2]; 160 g ai/ha, 33 DAT): 0.00%
- % phytotoxicity ([2]; 160 g ai/ha, 42 DAT): 0.00%
- % phytotoxicity ([2]; 160 g ai/ha, 160 DAT): 0.00%
- % phytotoxicity (Bluegrass/fescue mix; 10 g ai/ha, 7 DAT): 0.00%
- % phytotoxicity (Bluegrass/fescue mix; 10 g ai/ha, 14 DAT): 0.00%
- % phytotoxicity (Bluegrass/fescue mix; 10 g ai/ha, 22 DAT): 0.00%
- % phytotoxicity (Bluegrass/fescue mix; 10 g ai/ha, 29 DAT): 0.00%
- % phytotoxicity (Bluegrass/fescue mix; 10 g ai/ha, 46 DAT): 0.00%
- % phytotoxicity (Bluegrass/fescue mix; 20 g ai/ha, 7 DAT): 0.00%
- % phytotoxicity (Bluegrass/fescue mix; 20 g ai/ha, 14 DAT): 0.00%
- % phytotoxicity (Bluegrass/fescue mix; 20 g ai/ha, 22 DAT): 0.00%
- % phytotoxicity (Bluegrass/fescue mix; 20 g ai/ha, 29 DAT): 0.00%
- % phytotoxicity (Bluegrass/fescue mix; 20 g ai/ha, 46 DAT): 0.00%
- % phytotoxicity (Bluegrass/fescue mix; 40 g ai/ha, 7 DAT): 0.00%
- % phytotoxicity (Bluegrass/fescue mix; 40 g ai/ha, 14 DAT): 0.00%
- % phytotoxicity (Bluegrass/fescue mix; 40 g ai/ha, 22 DAT): 0.00%
- % phytotoxicity (Bluegrass/fescue mix; 40 g ai/ha, 29 DAT): 0.00%
- % phytotoxicity (Bluegrass/fescue mix; 40 g ai/ha, 46 DAT): 0.00%
- % phytotoxicity (Bluegrass/fescue mix; 80 g ai/ha, 7 DAT): 0.00%
- % phytotoxicity (Bluegrass/fescue mix; 80 g ai/ha, 14 DAT): 0.00%
- % phytotoxicity (Bluegrass/fescue mix; 80 g ai/ha, 22 DAT): 0.00%
- % phytotoxicity (Bluegrass/fescue mix; 80 g ai/ha, 29 DAT): 0.00%
- % phytotoxicity (Bluegrass/fescue mix; 80 g ai/ha, 46 DAT): 0.00%
- % phytotoxicity (Bluegrass/fescue mix; 160 g ai/ha, 7 DAT): 0.00%
- % phytotoxicity (Bluegrass/fescue mix; 160 g ai/ha, 14 DAT): 2.50%
- % phytotoxicity (Bluegrass/fescue mix; 160 g ai/ha, 22 DAT): 0.00%
- % phytotoxicity (Bluegrass/fescue mix; 160 g ai/ha, 29 DAT): 0.00%
- % phytotoxicity (Bluegrass/fescue mix; 160 g ai/ha, 46 DAT): 0.00%
